Assay results published in patent US20250042889A1, “3CLPRO PROTEASE INHIBITOR” (SHANGHAI QILU PHARMACEUTICAL RESEARCH AND DEVELOPMENT …, priority 2021, published 2025).

Molecular target: SARS-COV-2 3CLpro/Mpro protease (Severe acute respiratory syndrome coronavirus 2 (2019-nCoV) (SARS-CoV-2), UniProt P0DTD1)
Experiment: Inhibitory effect on SARS-COV-2 3CLpro/Mpro protease by fluorescence resonance energy transfer
Assay type: biochemical
Conditions: activity intervals A-D, read-out: IC50 (nM), Inhibition on SARS-CoV-2 3CLpro/Mpro protease

| SMILES | IC50 |
| --- | --- |
| CNc1cncc(C(=O)N2C[C@H](Nc3c(C(=O)N4C[C@@H](C)O[C@@H](C)C4)cc(Br)cc3[N+](=O)[O-])C[C@H]2C(=O)NC2CCN(CCOC)CC2(F)F)c1 (single isomer, unassigned) [Compound 453-P1] | 50 to 100 nM |
| O=C(c1cc(Br)cc([N+](=O)[O-])c1N[C@@H]1CCCN(C(=O)C2CNCC(F)(F)C2)C1)N1CCOC(F)(F)C1 (stereo in doubt) [Example 327] | 10 to 50 nM |
| O=C(c1cc(Br)cc([N+](=O)[O-])c1N[C@@H]1CCCN(C(=O)C2CNCC(F)(F)C2)C1)N1CCCC(F)(F)C1 (stereo in doubt) [Example 331] | 10 to 50 nM |
| CNc1cncc(C(=O)N2C[C@H](Nc3c(C(=O)N4C[C@@H](C)O[C@@H](C)C4)cc(Br)cc3[N+](=O)[O-])CC2C#N)c1 (stereo in doubt) [Example 362] | 50 to 100 nM |
| O=C(N[C@H]1CCCC[C@H]1Nc1c(C(=O)N2CC(F)(F)C2)cc(Br)cc1[N+](=O)[O-])c1cncc2ccccc12 [Example 1, N-((1S,2R)-2-((4-bromo-2-(3,3-difluoroazetidin-1-carbonyl)-6-nitrophenyl)amino)cyclohexyl) isoquinolin-4-formamide] | 10 to 50 nM |
| O=C(N[C@H]1CCCC[C@H]1Nc1c(C(=O)N2CCCCC2)cc(Br)cc1[N+](=O)[O-])c1cncc2ccccc12 [Example 2, N-((1S,2R)-2-((4-bromo-2-nitro-6-(piperidin-1-carbonyl)phenyl)amino)cyclohexyl) isoquinolin-4-formamide] | < 10 nM |
| O=C(N[C@H]1CCCC[C@H]1Nc1c(C(=O)N2CCCC2)cc(Br)cc1[N+](=O)[O-])c1cncc2ccccc12 [Example 3, N-((1S,2R)-2-((4-bromo-2-nitro-6-(pyrrolidin-1-carbonyl)phenyl)amino)cyclohexyl) isoquinolin-4-formamide] | < 10 nM |
| O=C(c1cccnc1)N1CCC[C@@H](Nc2c(C(=O)N3CCCCC3)cc(Br)cc2[N+](=O)[O-])C1 [Example 4, (R)-(5-bromo-2-((1-nicotinoylpiperidin-3-yl)amino)-3-nitrophenyl)(piperidin-1-yl)methanone] | 50 to 100 nM |
| O=C(c1cncc(Br)c1)N1CCC[C@@H](Nc2c(C(=O)N3CCCCC3)cc(Br)cc2[N+](=O)[O-])C1 [Example 5, (R)-(5-bromo-2-((1-(5-bromonicotinoyl)piperidin-3-yl)amino)-3-nitrophenyl)(piperidin-1-yl)methanone] | < 10 nM |
| O=C(c1cc(Br)cc([N+](=O)[O-])c1N[C@@H]1CCCN(C(=O)c2cncc3ccccc23)C1)N1CCC(F)(F)CC1 [Example 6, (R)-(5-bromo-2-((1-(isoquinolin-4-carbonyl)piperidin-3-yl)amino)-3-nitrophenyl)(4,4-difluoropiperidin-1-yl)methanone] | < 10 nM |
| CC1(C)C2CN(C(=O)c3cc(Br)cc([N+](=O)[O-])c3N[C@@H]3CCCN(C(=O)c4cncc5ccccc45)C3)CC21 (stereo partly drawn) [Example 7] | 10 to 50 nM |
| O=C(c1cc(Br)cc([N+](=O)[O-])c1N[C@@H]1CCCN(C(=O)c2cncc3cc(Cl)ccc23)C1)N1CCCCC1 [Example 8, (R)-(5-bromo-2-((1-(7-chloroisoquinolin-4-carbonyl)piperidin-3-yl)amino)-3-nitrophenyl)(piperidin-1-yl)methanone] | < 10 nM |
| O=C(N[C@H]1CCCC[C@H]1Nc1c(C(=O)N2CCCCC2)cc(Br)cc1C(F)(F)F)c1cncc2ccccc12 [Example 9, N-((1S,2R)-2-((4-Bromo-2-(piperidin-1-carbonyl)-6-(trifluoromethyl)phenyl)amino)cyclohexyl) isoquinolin-4-formamide] | < 10 nM |
| O=C(c1cc(Br)cc([N+](=O)[O-])c1N[C@@H]1CCCN(C(=O)c2cncc3ccccc23)C1)N1CCNCC1 [Example 10] | 10 to 50 nM |
| O=C(c1cc(Br)cc([N+](=O)[O-])c1N[C@@H]1CCCN(C(=O)c2cnnc3ccccc23)C1)N1CCCCC1 [Example 11, (R)-(5-bromo-2-((1-(4-cinnolin-carbonyl)piperidin-3-yl)amino)-3-nitrophenyl)(piperidin-1-yl)methanone] | 50 to 100 nM |
| O=C(c1cc(Br)cc([N+](=O)[O-])c1N[C@@H]1CCN(C(=O)c2cncc3ccccc23)C1)N1CCCCC1 [Example 12, (R)-(5-bromo-2-((1-(isoquinolin-4-carbonyl)pyrrolidin-3-yl)amino)-3-nitrophenyl)(piperidin-1-yl)methanone] | 10 to 50 nM |
| O=C(c1cc(Br)cc([N+](=O)[O-])c1N[C@@H]1CCCN(C(=O)c2cncc3ccccc23)C1)N1CCCCC1 [Example 13, (R)-(5-bromo-2-((1-(isoquinolin-4-carbonyl)piperidin-3-yl)amino)-3-nitrophenyl)(piperidin-1-yl)methanone] | < 10 nM |
| O=C(N[C@H]1CCCC[C@H]1Nc1c(C(=O)N2CCCCC2)cc(Br)cc1[N+](=O)[O-])c1cncc(Br)c1 [Example 14] | 10 to 50 nM |

| SMILES | IC50 |
| --- | --- |
| O=C(c1cc(Br)cc([N+](=O)[O-])c1N[C@@H]1CCCN(C(=O)c2cncc3ccccc23)C1)N1CC2CC2C1 (stereo partly drawn) [Example 15, ((3R)-3-((2-(3-azabicyclo[3.1.0]hexan-3-carbonyl)-4-bromo-6-nitrophenyl)amino)piperidin-1-yl)(isoquinolin-4-yl)methanone] | 10 to 50 nM |
| O=C(N[C@H]1CCCC[C@H]1Nc1c(C(=O)N2CCC(F)(F)CC2)cc(Br)cc1[N+](=O)[O-])c1cc(=O)[nH]c2ccccc12 [Example 16, N-((1S,2R)-2-((4-bromo-2-(4,4-difluoropiperidin-1-carbonyl)-6-nitrophenyl)amino)cyclohexyl)-2-oxo-1,2-dihydroquinolin-4-formamide] | 10 to 50 nM |
| C[C@@H]1CN(C(=O)c2cc(Br)cc([N+](=O)[O-])c2N[C@@H]2CCCN(C(=O)c3cncc4[nH]ccc34)C2)C[C@H](C)O1 [Example 17] | 10 to 50 nM |
| C[C@@H]1CN(C(=O)c2cc(Br)cc([N+](=O)[O-])c2N[C@@H]2CCCN(C(=O)C3CCNC(=O)C3)C2)C[C@H](C)O1 (stereo partly drawn) [Example 18, 4-((R)-3-((4-bromo-2-((2R,6S)-2,6-dimethylmorpholin-4-carbonyl)-6-nitrophenyl)amino)piperidin-1-carbonyl)piperidin-2-one] | 100 to 200 nM |
| CNc1cncc(C(=O)N2CCC[C@@H](Nc3c(C(=O)N4CCC(N5CCOCC5)CC4)cc(Br)cc3[N+](=O)[O-])C2)c1 [Example 19, (R)-(5-bromo-2-((1-(5-(methylamino)nicotinoyl)piperidin-3-yl)amino)-3-nitrophenyl)(4-morpholinopiperidin-1-yl)methanone] | 10 to 50 nM |
| CNc1cncc(C(=O)N2C[C@H](Nc3c(C(=O)N4C[C@@H](C)O[C@@H](C)C4)cc(Br)cc3[N+](=O)[O-])C3(CC3)C2)c1 [Example 20] | 10 to 50 nM |
| CNc1cncc(C(=O)N2C[C@H](Nc3c(C(=O)N4C[C@@H](C)N[C@@H](C)C4)cc(Br)cc3[N+](=O)[O-])C3(CC3)C2)c1 [Example 21] | 10 to 50 nM |
| CNc1cncc(C(=O)N2CCC[C@@H](Nc3c(C(=O)N4CCN(CC(F)(F)F)CC4)cc(Br)cc3[N+](=O)[O-])C2)c1 [Example 22] | 10 to 50 nM |
| CNc1cncc(C(=O)N2CCC[C@@H](Nc3c(C(=O)N4CCN(C(=O)C(F)(F)F)CC4)cc(Br)cc3[N+](=O)[O-])C2)c1 [Example 23, (R)-1-(4-(5-bromo-2-((1-(5-(methylamino)nicotinoyl)piperidin-3-yl)amino)-3-nitrobenzoyl)piperazin-1-yl)-2,2,2-trifluoroethan-1-one] | 10 to 50 nM |
| O=C(c1cc[nH]c(=O)c1)N1CCC[C@@H](Nc2c(C(=O)N3CCC(F)(F)CC3)cc(Br)cc2[N+](=O)[O-])C1 [Example 24, (R)-4-(3-((4-bromo-2-(4,4-difluoropiperidin-1-carbonyl)-6-nitrophenyl)amino)piperidin-1-carbonyl)pyridin-2 (1H)-one] | 100 to 200 nM |
| O=C1CN(C(=O)c2cc(Br)cc([N+](=O)[O-])c2N[C@@H]2CCCC[C@@H]2NC(=O)c2cncc3cc(Cl)ccc23)CCN1 [Example 25, N-((1S,2R)-2-((4-bromo-2-nitro-6-(3-oxopiperazin-1-carbonyl)phenyl)amino)cyclohexyl)-7-chloroisoquinolin-4-formamide] | 10 to 50 nM |
| Cc1cc(C(=O)N2CCC[C@@H](Nc3c(C(=O)N4CCOCC4)cc(Br)cc3[N+](=O)[O-])C2)cc(=O)[nH]1 [Example 26, (R)-4-(3-((4-bromo-2-(morpholin-4-carbonyl)-6-nitrophenyl)amino)piperidin-1-carbonyl)-6-methylpyridin-2 (1H)-one] | 10 to 50 nM |
| Cc1cc(C(=O)N2CCC[C@@H](Nc3c(C(=O)N4C[C@@H](C)O[C@@H](C)C4)cc(Br)cc3[N+](=O)[O-])C2)cc(=O)[nH]1 [Example 27, 4-((R)-3-((4-bromo-2-((2S,6R)-2,6-dimethylmorpholin-4-carbonyl)-6-nitrophenyl)amino)piperidin-1-carbonyl)-6-methylpyridin-2 (1H)-one] | 10 to 50 nM |
| O=C(c1cc(Br)cc([N+](=O)[O-])c1N[C@@H]1CCCN(C(=O)c2cncc3[nH]ccc23)C1)N1CCC(F)(F)CC1 [Example 28] | 10 to 50 nM |
| CNc1cncc(C(=O)N2CCC[C@@H](Nc3c(C(=O)N4CCN(C)CC4)cc(Br)cc3[N+](=O)[O-])C2)c1 [Example 29, (R)-(5-bromo-2-((1-(5-(methylamino)nicotinoyl)piperidin-3-yl)amino)-3-nitrophenyl)(4-methylpiperazin-1-yl)methanone] | 10 to 50 nM |
| CNc1cncc(C(=O)N2CC(Nc3c(C(=O)N4CCCCC4)cc(Br)cc3[N+](=O)[O-])C(F)(F)C2)c1 (stereo not drawn) [Example 32, (5-Bromo-2-((4,4-difluoro-1-(5-(methylamino)nicotinoyl)pyrrolidin-3-yl)amino)-3-nitrophenyl)(piperidin-1-yl)methanone] | 10 to 50 nM |
| C[C@H]1CCCN(C(=O)c2cc(Br)cc([N+](=O)[O-])c2N[C@@H]2CCCN(C(=O)[C@H]3CC(=O)N[C@@H](C)C3)C2)C1 [Example 33, (4R,6S)-4-((R)-3-((4-bromo-2-((S)-3-methylpiperidin-1-carbonyl)-6-nitrophenyl)amino)piperidin-1-carbonyl)-6-methylpiperidin-2-one] | 10 to 50 nM |
| CNc1cncc(C(=O)N2CCC[C@@H](Nc3c(C(=O)N4CCO[C@H](CF)C4)cc(Br)cc3[N+](=O)[O-])C2)c1 [Example 37] | 10 to 50 nM |
